# Experimental data from publication PMC3628851, “Combined Approaches for Drug Design Points the Way to Novel Proline Racemase Inhibitor Candidates to Fight Chagas’ Disease” (PLoS ONE, 2013).
# Where two headings read alike, the source gives them in different places.
# How the values were obtained:
# Solubility (qualitative) = type: physicochemical; details: for Solubility: solvent in which the compound is soluble, qualitative
# TcPRAC [1] = target: T1, TcPRAC (Trypanosoma cruzi, UniProt Q4DA80); test: TcPRAC inhibition by PYC derivatives (polarimetry and DAAO methodologies); type: biochemical
# T1 construct: His tag (inferred from nickel IMAC purification); made in house; host or cells: E. coli BL21 (DE3)
# T1 sequence (Q4DA80 32-423): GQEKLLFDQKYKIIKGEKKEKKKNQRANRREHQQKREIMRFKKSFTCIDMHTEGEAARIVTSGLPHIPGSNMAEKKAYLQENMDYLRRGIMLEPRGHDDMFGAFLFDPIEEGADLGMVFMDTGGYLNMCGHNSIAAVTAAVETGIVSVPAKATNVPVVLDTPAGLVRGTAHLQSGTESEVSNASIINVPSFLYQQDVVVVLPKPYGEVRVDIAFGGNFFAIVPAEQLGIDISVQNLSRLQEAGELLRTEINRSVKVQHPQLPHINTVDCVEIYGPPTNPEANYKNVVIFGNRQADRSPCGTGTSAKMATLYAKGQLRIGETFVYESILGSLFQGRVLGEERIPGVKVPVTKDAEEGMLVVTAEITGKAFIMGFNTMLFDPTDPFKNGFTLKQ
# Experimental: Recombinant Trypanosoma cruzi proline racemase (EC 5.1.1.4) was produced in E. Coli BL21 (DE3) (Invitrogen) and purified by immobilized metal affinity chromatography on nickel columns, as previously described.
# (§1) Optimum Proline racemization conditions for TcPRAC were determined using 10–300 mM L-Proline in 0.2 M NaOAc over a range of pH values, as described and L- to D- proline conversion took place in 1.5 mL reaction. Concentrations of D-proline formed were determined by optical rotation of the solution at 365 nm in a 10 cm optical path cell, thermostated at 37°C, using a polarimeter (Perkin Elmer 241 MC). Assays were also performed into microtiter plates (100 µL), as follows: dilutions of L- Proline (40 mM to 2.5 mM) in 0.2 M sodium acetate pH 6.0 and 0.25 mM TcPRAC were loaded into microtiter plate wells with 0–20 µM PYC or similar concentrations of potential inhibitors. Controls omitted TcPRAC and/or PYC. The microtiter plates were incubated for 30 minutes at 37°C. The enzyme was inactivated by heating in a microwave oven for 15 s at 900 Watts and shifting the pH to 8.3 by adding 6.8 µL of 0.235 M sodium pyrophosphate. The presence of D-Proline was tested in 50 µL from each well using the D-amino oxidase - Horse Radish Peroxidase/OPD combined test. Interference caused by the possible reactivity of amino acid L-forms with DAAOx was taken into account by using standards consisting of serial dilutions of an equimolar mixture of D- and L-proline ranging from 0 to 10 mM (10 mM total). For instance, DAAOx reacts with L-Proline 300 times slower than with D-Proline. Optical densities, OD490 nm – OD650 nm were recorded on a microtiter plate reader (Molecular Devices), and the signals from the blank control wells were deducted.
# TcPRAC [2] = target: T1, TcPRAC; test: DAAOx test of D-proline formed by TcPRAC; type: biochemical; details: for D-Proline formed: inhibitor 10 µM, without inhibitor 5.0 µM
# Experimental: as §1
# (§2) Only two novel TcPRAC inhibitors, both provided by the CN, were identified among these (Figure 4B).
# TcPRAC [3] = target: T1, TcPRAC; test: Kinetics of D-proline formation with time / enzyme inactivation (polarimetry); type: biochemical; details: for mode of TcPRAC inhibition: pre-incubation 5 or 10 min, 15 fold dilution, 300 mM L-proline
# Experimental: Kinetic reaction assays using fixed amounts of dimeric PRAC (22 µg –0.24 µM final), 40 mM substrate and 10 µM of the identified inhibitors were performed to characterize their effect on enzymatic activity (Figure 5). […] To further characterize the mode of action of this two molecules, the enzyme was pre-incubated (concentration 22 µg − 3,6 µM) with different concentration of inhibitor, for 5 or 10 min to determine inhibition dependence to inhibitor concentration and pre-incubation time. Then, the reaction mixture was diluted 15 fold and residual activity was determined in an excess of substrate (300 mM of L- proline).
# Figure 5 Kinetics of D-proline formation with time in the presence or absence of TcPRAC inhibitors. (A) Concentrations of D-proline formed were determined by polarimetry in reaction assays containing 0.15 µM of TcPRAC and 40 mM L proline (see Material and Methods).
# T. cruzi [4] = test: Vero cell infection by T. cruzi trypomastigotes, endocytic index (Giemsa count); type: cell-based, Trypanosoma cruzi; details: for Endocytic index (EI): added with parasites, 17 h, Vero cells
# Experimental: Cell culture-derived trypomastigotes from T. cruzi CL Brener (clone F11-F5) were isolated from the supernatant of bulk cultures of green monkey Vero kidney cells previously infected with bloodstream trypomastigotes. Known numbers of parasites, adherent infected cells and uninfected cell controls were lysed with 0.1 mL of 0.05% Tween 20 solution in sterile distilled water and the lysates were frozen. Vero cells were seeded in LabTek slides (5×10^4 cells/well) in RPMI 1640 medium/5% FCS and kept at 37°C, 5% CO2. […] To test the effect of the inhibitors on the parasite intracellular cycle, […] different dilutions of the compounds. All cultures were then washed with PBS, fixed and stained with Giemsa. The number of infected host cells was recorded along with the number of parasites per infected cell in at least 400 host cells, in duplicate experiments. Results were expressed as the endocytic index (EI) resulting from the product of the percentage of infected cells and the mean number of parasites per infected cell. Control cultures were incubated in medium alone or with equal DMSO concentrations.
# (§3) To verify the potential of these new PRAC inhibitors as lead compounds in drug design strategies, we compared their effects on cultures of host Vero cells infected or not with T. cruzi, with that of PYC. […] To determine whether the treatment of these cultures with the new compounds would indeed affect intracellular TcPRAC and as such interfere with parasite intracellular fate cells were then washed after parasite uptake and the same ligand concentrations as above (10 µM − 30 µM) were added to the cultures in fresh medium. The degree of infection was determined over 48 hours by capture ELISA. As expected, the number of parasites per well decreased in a dose-dependent manner (Figure 7). In vitro and in vivo experiments using mutant parasites that carry the luciferase gene are now in progress to support those data.
# TcPRAC [5] = target: T1, TcPRAC; test: Inhibition of TcPRAC proline racemization measured by polarimetry; type: biochemical
# Experimental: as §1, §2
# T. cruzi [6] = test: Vero cell infection by T. cruzi, total parasite numbers/culture by capture ELISA; type: cell-based, Trypanosoma cruzi
# Experimental: Cell culture-derived trypomastigotes from T. cruzi CL Brener (clone F11-F5) were isolated from the supernatant of bulk cultures of green monkey Vero kidney cells previously infected with bloodstream trypomastigotes. Known numbers of parasites, adherent infected cells and uninfected cell controls were lysed with 0.1 mL of 0.05% Tween 20 solution in sterile distilled water and the lysates were frozen. Vero cells were seeded in LabTek slides (5×10^4 cells/well) in RPMI 1640 medium/5% FCS and kept at 37°C, 5% CO2. […] To test the effect of the inhibitors on the parasite intracellular cycle, cultures were infected at 37°C for 17 hours without inhibitors, washed three times to eliminate extracellular parasites then incubated for up to 48 hours with fresh medium containing different dilutions of the compounds. All cultures were then washed with PBS, fixed and stained with Giemsa. The number of infected host cells was recorded along with the number of parasites per infected cell in at least 400 host cells, in duplicate experiments. Results were expressed as the endocytic index (EI) resulting from the product of the percentage of infected cells and the mean number of parasites per infected cell. Control cultures were incubated in medium alone or with equal DMSO concentrations.
# Flat-bottomed microtiter plates (Nunc, Denmark) were coated overnight at 4°C with rabbit anti-T. cruzi polyclonal antibodies and further blocked for 4 h at room temperature (RT) with 1% BSA, 0.05% Tween 20 in PBS. After washings, lysate samples from infected or control Vero cultures, or from T. cruzi, were then added and incubated at 4°C for 18 h. Plates were washed with PBS-Tween and incubated for 2 h at RT with polyclonal mouse anti-T. cruzi chronic serum, washed again and incubated for 1 h at RT with HRP-secondary antibodies. […] Optical densities were determined in a spectrophotometer at 450 nm and 650 nm, and analyzed by Softmax Pro software.
# as §3
# Total parasite numbers/culture were estimated by capture ELISA.
# TcPRAC [7] = target: T1, TcPRAC; details: cited from earlier work
# non infected Vero cells = test: Viability of non infected Vero cells; type: cell-based, green monkey; details: 3, 10 and 30 µM
# Experimental: Cell culture-derived trypomastigotes from T. cruzi CL Brener (clone F11-F5) were isolated from the supernatant of bulk cultures of green monkey Vero kidney cells previously infected with bloodstream trypomastigotes. Known numbers of parasites, adherent infected cells and uninfected cell controls were lysed with 0.1 mL of 0.05% Tween 20 solution in sterile distilled water and the lysates were frozen. Vero cells were seeded in LabTek slides (5×10^4 cells/well) in RPMI 1640 medium/5% FCS and kept at 37°C, 5% CO2. […] The number of infected host cells was recorded along with the number of parasites per infected cell in at least 400 host cells, in duplicate experiments. Results were expressed as the endocytic index (EI) resulting from the product of the percentage of infected cells and the mean number of parasites per infected cell. […]
# To verify the potential of these new PRAC inhibitors as lead compounds in drug design strategies, we compared their effects on cultures of host Vero cells infected or not with T. cruzi, with that of PYC. […] The degree of infection was determined over 48 hours by capture ELISA. […]
# [8] = classical Michaelian approaches
# [9] = 10 µM inhibitor, 40 mM substrate, 0.24 µM PRAC
# [10] = read-out: Racemization Inhibition
smiles,measurement,setting,value
"O=C(O)c1n[nH]cc1Br [Br-PZC, 4-bromo-1H-pyrazole-3-carboxylic acid]",Solubility,Solubility (qualitative),Water
same,Ki,TcPRAC [1]; [8],1000 µM
same,Ki,TcPRAC [1]; values in text,~1000 µM
"O=C(O)c1ccc[nH]1 [PYC, 2-pyrrolecarboxylic acid, reference compound]",D-Proline formed,TcPRAC [2],2.4 µM (IC50)
same,"racemization speed of L-proline, % of original speed",TcPRAC [3]; [9],~37%
same,solubility in water,Solubility (qualitative),water-insoluble
same,Solubility,Solubility (qualitative),Ethanol
same,Ki,TcPRAC [1]; [8],6 to 10 µM
same,Endocytic index (EI),T. cruzi [4]; inhibitor 10 µM,44
same,Endocytic index (EI),T. cruzi [4]; inhibitor 100 µM,30
same,Endocytic index (EI),T. cruzi [4]; inhibitor 1000 µM,25
same,IC50,TcPRAC [5],10 µM
same,inhibition at 10 µM,TcPRAC [5]; [10],56.9%
same,"percentage in Figure 7 (effect on total parasite numbers/culture, capture ELISA)",T. cruzi [6]; 10 µM,4%
same,"percentage in Figure 7 (effect on total parasite numbers/culture, capture ELISA)",T. cruzi [6]; 100 µM,2%
same,"percentage in Figure 7 (effect on total parasite numbers/culture, capture ELISA)",T. cruzi [6]; 1 mM,0%
same,mode of TcPRAC inhibition,TcPRAC [7],classical competitive and reversible
"CC(=O)/C=C/C(=O)O [OxoPA, (E)-4-oxopent-2-enoic acid]",D-Proline formed,TcPRAC [2],<0.3 µM
same,time at which plateau of enzyme inactivation is reached,TcPRAC [3]; [9],350 s
same,mode of TcPRAC inhibition,TcPRAC [3],irreversible
same,more potent than PYC in inhibiting TcPRAC,TcPRAC [1],2 fold
same,IC50,TcPRAC [5],3 µM
same,inhibition at 3 µM,TcPRAC [5]; [10],50%
same,"percentage in Figure 7 (effect on total parasite numbers/culture, capture ELISA)",T. cruzi [6]; 5 µM,9%
same,"percentage in Figure 7 (effect on total parasite numbers/culture, capture ELISA)",T. cruzi [6]; 10 µM,14%
same,"percentage in Figure 7 (effect on total parasite numbers/culture, capture ELISA)",T. cruzi [6]; 30 µM,15%
same,viability of non infected Vero cells,non infected Vero cells,neither OxoPA nor Br-OxoPA considerably affected the viability
"O=C(O)c1cc[nH]n1 [PZC, 1H-pyrazole-3-carboxylic acid]",Solubility,Solubility (qualitative),Water
same,Ki,TcPRAC [1]; [8],> 2000 µM
"CCc1c[nH]nc1C(=O)O [Et-PZC, 4-Ethyl-pyrazole-3-carboxylic acid]",Solubility,Solubility (qualitative),Water
same,Ki,TcPRAC [1]; [8],> 2000 µM
"Cc1[nH]nc(C(=O)O)c1Cl [M-Cl-PZC, 4-chloro-5-methyl-1H-pyrazole-3-carboxylic acid]",Solubility,Solubility (qualitative),Ethanol
same,Ki,TcPRAC [1]; [8],> 2000 µM
"O=C(O)c1n[nH]cc1Cl [Cl-PZC, 4-chloro-1H-pyrazole-3-carboxylic acid]",Solubility,Solubility (qualitative),Water
same,Ki,TcPRAC [1]; [8],300 µM
same,Ki,TcPRAC [1]; values in text,~300 µM
"O=C(O)/C=C/C(=O)CBr [Br-OxoPA, (E)-5-bromo-4-oxopent-2-enoic acid]",inhibition of conversion of L- into D-proline relative to PYC,"TcPRAC [2]; equivalent concentrations, DAAOx test",more than 5 times
same,D-Proline formed,TcPRAC [2],<0.3 µM
same,time at which plateau of enzyme inactivation is reached,TcPRAC [3]; [9],250 s
same,mode of TcPRAC inhibition,TcPRAC [3],irreversible
same,solubility in water,Solubility (qualitative),soluble
same,more potent than PYC in inhibiting TcPRAC,TcPRAC [1],4 fold
same,lower dose than PYC necessary to obtain the same endocytic index,T. cruzi [4]; 1000 µM PYC equivalent to 10 µM OxoPA or 30 µM Br-OxoPA,30 fold
same,Endocytic index (EI),T. cruzi [4]; inhibitor 3 µM,78
same,Endocytic index (EI),T. cruzi [4]; inhibitor 10 µM,42
same,Endocytic index (EI),T. cruzi [4]; inhibitor 30 µM,29
same,IC50,TcPRAC [5],2.5 µM
same,inhibition at 2.5 µM,TcPRAC [5]; [10],50%
same,inhibition at 10 µM,TcPRAC [5]; [10],81.3%
same,"percentage in Figure 7 (effect on total parasite numbers/culture, capture ELISA)",T. cruzi [6]; 5 µM,24%
same,"percentage in Figure 7 (effect on total parasite numbers/culture, capture ELISA)",T. cruzi [6]; 10 µM,34%
same,"percentage in Figure 7 (effect on total parasite numbers/culture, capture ELISA)",T. cruzi [6]; 30 µM,39%
same,viability of non infected Vero cells,non infected Vero cells,neither OxoPA nor Br-OxoPA considerably affected the viability
